Patent publication US7368471B2, “Substituted indole acid derivatives as inhibitors of plasminogen activator inhibitor-1 (PAI-1)” (Wyeth, priority 2001, dated 2008)

Experiments:
[1] = biological target: T1, recombinant human plasminogen activator inhibitor-1 (PAI-1) (Homo sapiens, UniProt P05121); experiment: Primary Screen for the PAI-1 Inhibition (residual tPA activity, Spectrozyme-tPA chromogenic substrate); type: biochemical; conditions: 25 μM test compound
T1 construct: purchased Molecular Innovations, Royal Oak, Mich
Experimental: Primary Screen for the PAI-1 Inhibition
Test compounds are dissolved in DMSO at a final concentration of 10 mM, then diluted 100× in physiologic buffer. The inhibitory assay is initiated by the addition of the test compound (1-100 μM final concentration, maximum DMSO concentration of 0.2%) in a pH 6.6 buffer containing 140 nM recombinant human plasminogen activator inhibitor-1 (PAI-1; Molecular Innovations, Royal Oak, Mich.). Following a 1 hour incubation at room temperature, 70 nM of recombinant human tissue plasminogen activator (tPA) is added, and the combination of the test compound, PAI-1 and tPA is incubated for an additional 30 minutes. Following the second incubation, Spectrozyme-tPA (American Diagnostica, Greenwich, Conn.), a chromogenic substrate for tPA, is added and absorbance read at 405 nm at 0 and 60 minutes. Relative PAI-1 inhibition is equal to the residual tPA activity in the presence of the test compound and PAI-1. Control treatments include the complete inhibition of tPA by PAI-1 at the molar ratio employed (2:1), and the absence of any effect of the test compound on tPA alone.

T1 sequence (P05121 24-402): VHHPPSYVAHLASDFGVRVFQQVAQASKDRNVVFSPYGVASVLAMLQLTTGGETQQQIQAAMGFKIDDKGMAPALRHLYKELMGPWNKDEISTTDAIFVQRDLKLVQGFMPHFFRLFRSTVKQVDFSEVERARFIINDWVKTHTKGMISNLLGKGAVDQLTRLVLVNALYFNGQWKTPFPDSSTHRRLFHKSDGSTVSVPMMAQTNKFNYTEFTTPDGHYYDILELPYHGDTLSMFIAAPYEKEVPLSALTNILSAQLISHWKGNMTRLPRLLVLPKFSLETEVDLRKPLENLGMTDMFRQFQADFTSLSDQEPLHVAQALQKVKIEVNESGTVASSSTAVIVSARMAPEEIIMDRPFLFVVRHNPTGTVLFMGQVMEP

Molecule	inhibition at 25 µM [1]	melting point	% Inhibition @ 25 μM [1]
COc1ccc(-c2ccc3c(c2)c(C(=O)C(=O)O)cn3CC2CCCCC2)cc1 [Example 59, [5-(4-methoxyphenyl)-1-(cyclohexylmethyl)-1H-indol-3-yl](oxo)acetic acid]	58%		
CC(=O)c1ccc(-c2ccc3c(c2)c(C(=O)C(=O)O)cn3Cc2ccccc2)cc1 [Example 11, [5-(4-Acetylphenyl)-1-benzyl-1H-indol-3-yl](oxo)acetic acid]	19%	213 to 214 °C (dec.)	
Cn1cc(C(=O)O)c2ccc(-c3ccc(C(F)(F)F)cc3)cc21 [Example 60, 1-Methyl-6-(4-trifluoromethyl-phenyl)-1H-indole-3-carboxylic acid]	39%	237 to 239 °C (dec.)	
CC(C)(C)c1ccc(Cn2cc(C(=O)C(=O)O)c3ccc(-c4ccc(C(F)(F)F)cc4)cc32)cc1 [Example 7, {1-[4-(tert-Butyl)benzyl]-6-[4-(trifluoromethyl)phenyl]-1H-indol-3-yl}(oxo)acetic acid]	26%	205 to 206 °C (dec.)	
CC1CCC(n2cc(C(=O)C(=O)O)c3cc(-c4cccc(C(F)(F)F)c4)ccc32)C1 (centres unmarked) [Example 56, [5-(3-trifluoromethylphenyl)-1-(3-methylcyclopentyl)-1H-indol-3-yl](oxo)acetic acid]	54%		
O=C(O)C(=O)c1cn(C2CCCC2)c2ccc(-c3cccc(C(F)(F)F)c3)cc12 [Example 54, [5-(3-trifluoromethylphenyl)-1-(cyclopentyl)-1H-indol-3-yl](oxo)acetic acid]	46%		
O=C(O)C(=O)c1cn(C2CCCC2)c2ccc(-c3ccc(C(F)(F)F)cc3)cc12 [Example 49, [5-(4-trifluoromethylphenyl)-1-(cyclopentyl)-1H-indol-3-yl](oxo)acetic acid]	54%		
O=C(O)C(=O)c1cn(CCCC2CCCC2)c2ccc(-c3cccc(C(F)(F)F)c3)cc12 [Example 58, [5-(3-trifluoromethylphenyl)-1-(cyclopentylpropyl)-1H-indol-3-yl](oxo)acetic acid]	61%		
O=C(O)C(=O)c1cn(Cc2ccccc2)c2ccc(-c3ccc(C(F)(F)F)cc3)cc12 [Example 9, {1-Benzyl-5-[4-(trifluoromethyl)phenyl]-1H-indol-3-yl}(oxo)acetic acid]	40%	201 to 202 °C (dec.)	
CCCCn1cc(C(=O)C(=O)O)c2cc(-c3cccc(OC)c3)ccc21 [Example 31, [1-Butyl-5-(3-methoxyphenyl)-1H-indol-3-yl](oxo)acetic acid]	32%	108 to 109 °C	
CCCCn1cc(C(=O)C(=O)O)c2cc(-c3ccc(OC)cc3)ccc21 [Example 32, [1-Butyl-5-(4-methoxyphenyl)-1H-indol-3-yl](oxo)acetic acid]	28%	172 to 173 °C	
O=C(O)C(=O)c1cn(CC2CCC2)c2ccc(-c3cccc(Cl)c3)cc12 [Example 46, [5-(3-chlorophenyl)-1-(cyclobutylmethyl)-1H-indol-3-yl](oxo)acetic acid]	45%		
CCn1cc(C(=O)C(=O)O)c2ccc(-c3ccc(C(F)(F)F)cc3)cc21 [Example 4, {1-Ethyl-6-[4-(trifluoromethyl)phenyl]-1H-indol-3-yl}(oxo)acetic acid]	16%	247 to 248 °C	
O=C(O)C(=O)c1cn(CC2CCC2)c2ccc(-c3ccc(C(F)(F)F)cc3)cc12 [Example 50, [5-(4-trifluoromethylphenyl)-1-(cyclobutylmethyl)-1H-indol-3-yl](oxo)acetic acid]	59%		
CC(C)(C)c1ccc(Cn2cc(C(=O)C(=O)O)c3cc(-c4ccc(Cl)cc4)ccc32)cc1 [Example 38, [1-(4-tert-Butylbenzyl)-5-(4-chlorophenyl)-1H-indol-3-yl](oxo)acetic acid]	14%	183 to 184 °C	
CC(C)(C)c1ccc(-c2ccc3c(c2)c(C(=O)C(=O)O)cn3Cc2ccccc2)cc1 [Example 14, {1-Benzyl-5-[4-(tert-butyl)phenyl]-1H-indol-3-yl}(oxo)acetic acid]	55%	210 to 211 °C (dec.)	
O=C(O)C(=O)c1cn(CCCC2CCCC2)c2ccc(-c3ccc(C(F)(F)F)cc3)cc12 [Example 53, [5-(4-trifluoromethylphenyl)-1-(cyclopentylpropyl)-1H-indol-3-yl](oxo)acetic acid]	67%		
Cn1cc(C(=O)C(=O)O)c2ccc(-c3ccc(C(C)(C)C)cc3)cc21 [Example 10, {6-[4-(tert-Butyl)phenyl]-1-methyl-1H-indol-3-yl}(oxo)acetic acid]	33%	201 to 202 °C (dec.)	

Molecule	inhibition at 25 µM [1]	melting point	% Inhibition @ 25 μM [1]
Cn1cc(C(=O)O)c2ccc(-c3ccc(C(C)(C)C)cc3)cc21 [Example 61, 6-(4-tert-Butyl-phenyl)-1-methyl-1H-indole-3-carboxylic acid]	28%	236 to 238 °C (dec.)	
CC1CCC(n2cc(C(=O)C(=O)O)c3cc(-c4ccc(C(F)(F)F)cc4)ccc32)C1 (centres unmarked) [Example 51, [5-(4-trifluoromethylphenyl)-1-(3-methylcyclopentyl)-1H-indol-3-yl](oxo)acetic acid]	58%		
Cc1ccc(Cn2cc(CC(=O)O)c3cc(-c4ccc(OC(F)(F)F)cc4)ccc32)cc1 [Example 65, {1-(4-Methylbenzyl)-5-[4-(trifluoromethoxy)phenyl]-1H-indol-3-yl}acetic acid]		62 to 63 °C	
Cc1cccc(-c2ccc3c(c2)c(CC(=O)O)cn3Cc2ccc(C(C)(C)C)cc2)c1 [Example 64, 2-[1-[4-(tert-Butyl)benzyl]-5-(3-methylphenyl)-1H-indol-3-yl]-acetic acid]		91 to 92 °C	
Cn1cc(CC(=O)O)c2cc(-c3ccc(C(F)(F)F)cc3)ccc21 [Example 63, [1-Methyl-5-(4-trifluoromethyl-phenyl)-1H-indol-3-yl]-acetic acid]		167 to 168 °C	
CC(=O)OCc1c(C(=O)C(=O)O)c2cc(-c3ccc(OC(F)(F)F)cc3)ccc2n1Cc1ccc(C)cc1 [Example 41, {2-[(Acetyloxy)methyl]-1-(4-methylbenzyl)-5-[4-(trifluoromethoxy)phenyl]-1H-indol-3-yl}(oxo)acetic acid]	13%	79 to 80 °C	
O=C(O)C(=O)c1cn(Cc2ccccc2)c2cc(-c3ccccc3)ccc12 [Example 23, (1-Benzyl-6-phenyl-1H-indol-3-yl)(oxo)acetic acid]	40%		
[5-(3-chlorophenyl)-1-(3-methylcyclopropyl)-1H-indol-3-yl](oxo)acetic acid [Example 47]			51%
Cn1cc(C(=O)C(=O)O)c2ccc(-c3ccc(OC(F)(F)F)cc3)cc21 [Example 1, {1-Methyl-6-[4-(trifluoromethoxy)phenyl]-1H-indol-3-yl}(oxo)acetic acid]	15%	233 to 235 °C (dec.)	
O=C(O)C(=O)c1cn(Cc2ccccc2)c2cccc(-c3ccc(C(F)(F)F)cc3)c12 [Example 13, {1-Benzyl-4-[4-(trifluoromethyl)phenyl]-1H-indol-3-yl}(oxo)acetic acid]	27%	183 to 184 °C	
O=C(O)C(=O)c1cn(CC2CCCCC2)c2ccc(-c3ccc(C(F)(F)F)cc3)cc12 [Example 52, [5-(4-trifluoromethylphenyl)-1-(cyclohexylmethyl)-1H-indol-3-yl](oxo)acetic acid]	59%		
CCn1cc(C(=O)C(=O)O)c2ccc(-c3ccc(OC(F)(F)F)cc3)cc21 [Example 3, {1-Ethyl-6-[4-(trifluoromethoxy)phenyl]-1H-indol-3-yl}(oxo)acetic acid]	24%	204 to 205 °C	
O=C(O)C(=O)c1cn(C2CCCC2)c2ccc(-c3cccc(Cl)c3)cc12 [Example 45, [5-(3-Chlorophenyl)-1-cyclopentyl-1H-indol-3-yl]-oxo-acetic acid]	45%		
O=C(O)C(=O)c1cn(CC2CCC2)c2ccc(-c3cccc(C(F)(F)F)c3)cc12 [Example 55, [5-(3-trifluoromethylphenyl)-1-(cyclobutylmethyl)-1H-indol-3-yl](oxo)acetic acid]	51%		
O=C(O)C(=O)c1cn(Cc2ccccc2)c2cc(-c3ccc(C(F)(F)F)cc3)ccc12 [Example 6, {1-Benzyl-6-[4-(trifluoromethyl)phenyl]-1H-indol-3-yl}(oxo)acetic acid]	27%	223 to 224 °C (dec.)	
O=C(O)C(=O)c1cn(Cc2ccccc2)c2cccc(-c3ccc(OC(F)(F)F)cc3)c12 [Example 20, {1-Benzyl-4-[4-(trifluoromethoxy)phenyl]-1H-indol-3-yl}(oxo)acetic acid]	14%		
O=C(O)C(=O)c1cn(CC2CCCCC2)c2ccc(-c3cccc(C(F)(F)F)c3)cc12 [Example 57, [5-(3-trifluoromethylphenyl)-1-(cyclohexylmethyl)-1H-indol-3-yl](oxo)acetic acid]	57%		
O=C(O)C(=O)c1cn(Cc2ccccc2)c2ccc(-c3ccccc3)cc12 [Example 24, (1-Benzyl-5-phenyl-1H-indol-3-yl)(oxo)acetic acid]	47%	193 to 195 °C (dec.)	
